Test results taken from ChEMBL document CHEMBL1145877, “5H-8,9-dimethoxy-5-(2-N,N-dimethylaminoethyl)dibenzo[c,h][1,6]naphthyridin-6-ones and related compounds as TOP1-targeting agents: influence of structure on the ternary cleavable complex formation” (Bioorg Med Chem Lett, 2003).

Each molecule was assayed against T1, DNA topoisomerase 1 (Homo sapiens) (UniProt P11387) (assay: Concentration relative to topotecan for topoisomerase DNA topoisomerase I cleavage).
T1 sequence (whole entry): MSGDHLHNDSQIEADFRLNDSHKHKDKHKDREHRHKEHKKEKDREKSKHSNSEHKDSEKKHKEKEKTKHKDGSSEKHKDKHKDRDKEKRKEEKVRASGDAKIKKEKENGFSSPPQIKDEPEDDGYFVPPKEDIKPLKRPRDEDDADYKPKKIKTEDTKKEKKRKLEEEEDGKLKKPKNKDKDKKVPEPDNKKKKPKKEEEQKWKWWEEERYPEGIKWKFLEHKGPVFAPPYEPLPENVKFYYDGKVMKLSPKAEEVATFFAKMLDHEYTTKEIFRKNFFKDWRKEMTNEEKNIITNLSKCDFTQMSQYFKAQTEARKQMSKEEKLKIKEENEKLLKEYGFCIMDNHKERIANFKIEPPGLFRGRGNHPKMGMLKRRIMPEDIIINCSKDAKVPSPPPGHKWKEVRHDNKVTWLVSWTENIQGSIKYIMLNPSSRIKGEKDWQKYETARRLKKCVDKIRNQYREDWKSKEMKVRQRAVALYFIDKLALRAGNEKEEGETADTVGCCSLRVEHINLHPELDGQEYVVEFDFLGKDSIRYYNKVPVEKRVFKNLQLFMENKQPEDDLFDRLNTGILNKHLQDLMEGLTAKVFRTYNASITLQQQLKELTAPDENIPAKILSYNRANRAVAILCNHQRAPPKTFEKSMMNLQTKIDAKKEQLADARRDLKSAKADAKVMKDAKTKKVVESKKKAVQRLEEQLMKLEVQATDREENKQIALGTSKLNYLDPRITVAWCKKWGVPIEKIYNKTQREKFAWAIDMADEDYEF
An REC of 0.8 was found for `COc1cc2c(cc1OC)-c1cnc3cc4c(cc3c1N(CCN(C)C)C2)OCO4` in this work.
An REC of 1 was found for `COc1cc2c(=O)n(CCCN(C)C)c3c4cc5c(cc4ncc3c2cc1OC)OCO5` in this work.
An REC of 2 was found for `COc1cc2c(=O)n(CCN(C)C)c3c4cc([N+](=O)[O-])ccc4ncc3c2cc1OC` in this work.
An REC of 6 was found for `COc1cc2c(=O)n(CCN(C)C)c3c4ccc([N+](=O)[O-])cc4ncc3c2cc1OC` in this work.
An REC of 0.3 was found for `COc1cc2c(=O)n(CCN(C)C)c3c4cc5c(cc4nnc3c2cc1OC)OCO5` in this work.
An REC of 300 was found for `COc1cc2c(=O)n(CCN(C)C)c3c(cnc4cccc([N+](=O)[O-])c43)c2cc1OC` in this work.
An REC of 9 was found for `COc1cc2c(=O)n(CCN(C)C)c3c4cccc([N+](=O)[O-])c4ncc3c2cc1OC` in this work.
